Reference: BindingDB's records for patent US12091399 (Boehringer Ingelheim International, 2024)

Target: Plasma kallikrein (Homo sapiens, UniProt P03952)
Assay: Evaluation of the Inhibition of PKK Using an Endpoint Assay
Description: Subsequently, PPACK II (Calbiochem) was added as a stop solution to achieve a final concentration of 1 μM and fluorescence was measured using an Envision Reader (PerkinElmer) with the wavelength excitation setting of 355 nm and the wavelength emission setting of 460 nm.

Sequence of Plasma kallikrein (P03952 20-390 limits assumed): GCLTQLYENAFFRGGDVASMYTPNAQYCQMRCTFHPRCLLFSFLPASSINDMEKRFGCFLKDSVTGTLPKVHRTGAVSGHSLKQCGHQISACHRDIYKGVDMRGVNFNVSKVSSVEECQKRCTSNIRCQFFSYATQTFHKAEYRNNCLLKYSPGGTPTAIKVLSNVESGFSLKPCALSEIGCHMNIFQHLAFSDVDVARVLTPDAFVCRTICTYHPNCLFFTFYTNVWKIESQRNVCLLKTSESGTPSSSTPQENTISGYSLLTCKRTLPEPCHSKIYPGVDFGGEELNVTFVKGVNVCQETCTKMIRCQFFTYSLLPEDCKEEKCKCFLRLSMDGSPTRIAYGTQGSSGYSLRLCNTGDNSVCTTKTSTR
Sequence of Plasma kallikrein (P03952 391-638 limits assumed): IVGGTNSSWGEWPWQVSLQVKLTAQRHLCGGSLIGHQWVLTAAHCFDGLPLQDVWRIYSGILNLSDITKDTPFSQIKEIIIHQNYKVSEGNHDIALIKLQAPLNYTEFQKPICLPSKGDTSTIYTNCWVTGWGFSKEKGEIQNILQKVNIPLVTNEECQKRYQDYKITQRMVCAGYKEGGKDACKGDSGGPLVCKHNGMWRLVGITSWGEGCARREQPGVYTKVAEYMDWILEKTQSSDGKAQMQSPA

IC50: 0.038 µM
SMILES: Cc1nc(N2C[C@@H]3[C@@H](N)[C@@H]3C2)ccc1Cn1cc(C(=O)NCc2cc(Cl)ccc2-n2cnnn2)cn1 [US12091399, Example 58]
